This is an account of results in patent publication US20210038607A1, “OXADIAZOLYLTHIOPHENE DERIVATIVES USEFUL AS HISTONE DEACETYLASE INHIBITORS” (Karus Therapeutics Limited, priority 2018, published 2021).

For orientation: IC50 means the concentration that gives 50% inhibition.

One test has as its target T1, Human HDAC1 (Homo sapiens, UniProt Q13547).
T1 construct: full length with C-terminal His-tag and C-terminal FLAG-tag; His (C); FLAG (C); host or cells: baculovirus expression system
Briefly: HDAC1 biochemical assay, AMC-labeled peptide substrate. The settings on record: read-out: HDAC Isoform IC50 (nM) 1. Put shortly: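 Two-step fluorogenic read: HDAC1 deacetylates 50 μM acetyl-lysine AMC peptide RHKK(Ac)AMC for 1 h at 30° C (pH 8.0, 1% DMSO, with compound), then developer digests the product for fluorescence at Ex/Em 360/460. Enzyme is full-length human, His/FLAG-tagged, insect-cell expressed, at 0.3 ng/ul.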

A further test addresses T2, Human HDAC4 (Homo sapiens, UniProt P56524).
T2 construct: amino acids 627-1085 with N-terminal GST tag; GST (N); host or cells: baculovirus expression system
Briefly: HDAC4 biochemical assay, class IIa-specific substrate. The settings on record: read-out: HDAC Isoform IC50 (nM) 4. Put shortly: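 Two-step fluorogenic read-out: deacetylated BOC-Lys(trifluoroacetyl)-AMC (50 μM) was digested by developer and measured at Ex/Em 360/460. Deacetylation by 0.004 ng/ul HDAC4 (aa 627-1085, N-terminal GST) ran 30 min at room temperature, pH 8.0 Tris buffer, 1 mg/mL BSA, 1% DMSO.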

A further test deals with T3, Human HDAC5 (Homo sapiens, UniProt Q9UQL6).
T3 construct: full length with C-terminal His tag, MW=51.1 kDa; His (C); host or cells: baculovirus expression system
In words: HDAC5 biochemical assay, class IIa-specific substrate. The settings on record: read-out: HDAC Isoform IC50 (nM) 5. Put shortly:
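Two-step fluorogenic read-out: deacetylated trifluoroacetyl-lysine AMC substrate (50 μM) digested by developer, measured at Ex/Em 360/460. Deacetylation step: 0.05 ng/ul His-tagged full-length baculoviral enzyme with compound, 30 min, room temperature, pH 8.0 Tris with 1 mg/mL BSA and 1% DMSO.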

The target in a further test is T4, Recombinant human HDAC6 (Homo sapiens, UniProt Q9UBN7).
T4 construct: full length, MW=159 kDa; GST (N); host or cells: Sf9 insect cells (baculovirus)
T4 sequence (Q9UBN7 1-1215): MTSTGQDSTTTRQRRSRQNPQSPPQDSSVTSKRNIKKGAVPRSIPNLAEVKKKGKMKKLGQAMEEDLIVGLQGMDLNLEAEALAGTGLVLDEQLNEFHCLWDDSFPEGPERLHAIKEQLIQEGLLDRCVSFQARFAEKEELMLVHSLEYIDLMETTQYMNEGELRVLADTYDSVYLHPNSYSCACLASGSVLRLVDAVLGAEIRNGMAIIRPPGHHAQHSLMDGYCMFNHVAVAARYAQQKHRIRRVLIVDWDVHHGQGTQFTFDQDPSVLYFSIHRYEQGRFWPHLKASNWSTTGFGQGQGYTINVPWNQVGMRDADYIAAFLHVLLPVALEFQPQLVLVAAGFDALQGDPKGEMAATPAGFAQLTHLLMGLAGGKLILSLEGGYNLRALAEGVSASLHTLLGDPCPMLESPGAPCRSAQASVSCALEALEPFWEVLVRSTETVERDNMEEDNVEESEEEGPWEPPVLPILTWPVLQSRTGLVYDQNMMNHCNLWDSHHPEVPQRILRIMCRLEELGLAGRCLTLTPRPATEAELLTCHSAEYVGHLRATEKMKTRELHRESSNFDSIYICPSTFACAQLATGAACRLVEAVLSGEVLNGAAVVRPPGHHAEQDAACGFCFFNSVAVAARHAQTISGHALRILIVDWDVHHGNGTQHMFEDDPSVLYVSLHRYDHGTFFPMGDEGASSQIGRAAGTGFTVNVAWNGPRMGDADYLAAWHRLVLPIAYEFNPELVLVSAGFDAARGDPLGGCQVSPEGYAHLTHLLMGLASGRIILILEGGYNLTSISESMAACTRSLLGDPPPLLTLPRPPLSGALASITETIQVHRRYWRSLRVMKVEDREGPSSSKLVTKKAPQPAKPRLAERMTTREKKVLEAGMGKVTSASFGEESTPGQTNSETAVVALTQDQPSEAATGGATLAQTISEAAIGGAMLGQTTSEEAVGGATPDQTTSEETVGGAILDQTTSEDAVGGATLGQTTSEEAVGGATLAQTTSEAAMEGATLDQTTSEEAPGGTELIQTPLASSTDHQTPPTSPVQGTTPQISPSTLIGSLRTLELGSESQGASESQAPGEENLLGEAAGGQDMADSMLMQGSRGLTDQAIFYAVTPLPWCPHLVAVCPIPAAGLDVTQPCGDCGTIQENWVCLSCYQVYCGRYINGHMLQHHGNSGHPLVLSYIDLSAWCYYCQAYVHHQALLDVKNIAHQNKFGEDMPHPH
In words: HDAC6 biochemical assay, AMC-labeled peptide substrate. The settings on record: HDAC6; read-out: HDAC Isoform IC50 (nM) 6. Put shortly:
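Two-step fluorogenic read-out: enzyme deacetylates 50 μM RHKK(Ac)AMC for 1 h at 30° C in pH 8.0 Tris buffer with BSA and 1% DMSO, then developer cleavage gives signal at Ex 360/Em 460. Enzyme: 0.3 ng/ul recombinant full-length human HDAC6, GST-tagged, Sf9-expressed.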

The target of the next test is T5, Human HDAC7 (Homo sapiens, UniProt Q8WUI4).
T5 construct: (a.a. 518-end) with N-terminal GST tag; GST (N); host or cells: baculovirus expression system
T5 sequence (Q8WUI4 518-952 limits assumed): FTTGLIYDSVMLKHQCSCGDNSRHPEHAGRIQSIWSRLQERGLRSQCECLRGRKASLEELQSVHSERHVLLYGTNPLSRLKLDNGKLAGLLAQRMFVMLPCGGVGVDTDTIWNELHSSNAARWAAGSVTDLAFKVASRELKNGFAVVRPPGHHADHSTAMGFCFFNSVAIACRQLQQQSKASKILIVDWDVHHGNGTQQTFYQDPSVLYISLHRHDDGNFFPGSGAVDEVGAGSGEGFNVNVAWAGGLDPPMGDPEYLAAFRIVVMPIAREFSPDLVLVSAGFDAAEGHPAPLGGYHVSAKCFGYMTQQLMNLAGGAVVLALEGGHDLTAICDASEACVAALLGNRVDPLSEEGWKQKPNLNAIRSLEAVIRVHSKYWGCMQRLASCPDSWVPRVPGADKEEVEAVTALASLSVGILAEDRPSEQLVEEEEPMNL
Briefly: HDAC7 biochemical assay, class IIa-specific substrate. The settings on record: read-out: HDAC Isoform IC50 (nM) 7. In a few lines: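 Two-step fluorogenic readout: class IIa-selective trifluoroacetyl-lysine AMC substrate (50 μM) deacetylated by N-terminal GST-HDAC7 fragment (0.001 ng/ul), then digested by developer, Ex/Em 360/460. Reaction: 30 min, room temperature, Tris-HCl pH 8.0, NaCl/KCl/MgCl2, 1 mg/mL BSA, 1% DMSO.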

The target in another test is T6, Human HDAC9 (Homo sapiens, UniProt Q9UKV0).
T6 construct: amino acids 604-1066 with C-terminal His tag; His (C); host or cells: baculovirus expression system
In words: HDAC9 biochemical assay, class IIa-specific substrate. The settings on record: read-out: HDAC Isoform IC50 (nM) 9. In a few lines:
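HDAC9 residues 604-1066 (C-terminal His tag, baculovirus-expressed) at 0.06 ng/ul with 50 μM class IIa substrate Boc-Lys(trifluoroacetyl)-AMC in Tris-HCl pH 8.0 buffer with BSA and 1% DMSO. 30 min at room temperature, then developer added; fluorescence read at 360/460 nm Ex/Em.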

T6 sequence (Q9UKV0 604-1066 isoform Q9UKV0-5): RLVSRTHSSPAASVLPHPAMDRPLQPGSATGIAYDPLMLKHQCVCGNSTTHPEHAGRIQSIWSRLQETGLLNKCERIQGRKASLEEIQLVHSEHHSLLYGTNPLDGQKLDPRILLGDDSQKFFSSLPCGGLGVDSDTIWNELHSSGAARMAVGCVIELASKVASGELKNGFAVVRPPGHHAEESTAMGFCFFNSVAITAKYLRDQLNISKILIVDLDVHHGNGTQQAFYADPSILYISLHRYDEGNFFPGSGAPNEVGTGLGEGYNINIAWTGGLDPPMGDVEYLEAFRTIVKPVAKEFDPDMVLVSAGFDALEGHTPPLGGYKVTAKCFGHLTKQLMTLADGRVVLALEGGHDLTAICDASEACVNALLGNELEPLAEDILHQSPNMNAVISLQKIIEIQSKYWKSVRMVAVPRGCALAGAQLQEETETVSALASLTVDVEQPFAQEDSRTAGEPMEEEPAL
T2 sequence (P56524 627-1084 limits assumed): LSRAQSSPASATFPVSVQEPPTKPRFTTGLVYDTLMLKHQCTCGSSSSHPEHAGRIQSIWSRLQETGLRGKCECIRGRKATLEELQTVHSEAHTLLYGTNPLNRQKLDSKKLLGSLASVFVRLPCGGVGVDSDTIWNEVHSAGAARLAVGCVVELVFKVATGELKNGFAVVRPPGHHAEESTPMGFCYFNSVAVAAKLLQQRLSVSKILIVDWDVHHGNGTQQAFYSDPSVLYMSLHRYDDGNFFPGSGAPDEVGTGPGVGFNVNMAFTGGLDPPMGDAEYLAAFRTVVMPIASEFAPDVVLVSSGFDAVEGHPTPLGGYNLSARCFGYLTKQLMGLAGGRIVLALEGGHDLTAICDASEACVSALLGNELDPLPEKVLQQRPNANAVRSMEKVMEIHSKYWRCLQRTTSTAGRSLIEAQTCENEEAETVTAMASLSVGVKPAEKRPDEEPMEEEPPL
T1 sequence (Q13547 whole entry): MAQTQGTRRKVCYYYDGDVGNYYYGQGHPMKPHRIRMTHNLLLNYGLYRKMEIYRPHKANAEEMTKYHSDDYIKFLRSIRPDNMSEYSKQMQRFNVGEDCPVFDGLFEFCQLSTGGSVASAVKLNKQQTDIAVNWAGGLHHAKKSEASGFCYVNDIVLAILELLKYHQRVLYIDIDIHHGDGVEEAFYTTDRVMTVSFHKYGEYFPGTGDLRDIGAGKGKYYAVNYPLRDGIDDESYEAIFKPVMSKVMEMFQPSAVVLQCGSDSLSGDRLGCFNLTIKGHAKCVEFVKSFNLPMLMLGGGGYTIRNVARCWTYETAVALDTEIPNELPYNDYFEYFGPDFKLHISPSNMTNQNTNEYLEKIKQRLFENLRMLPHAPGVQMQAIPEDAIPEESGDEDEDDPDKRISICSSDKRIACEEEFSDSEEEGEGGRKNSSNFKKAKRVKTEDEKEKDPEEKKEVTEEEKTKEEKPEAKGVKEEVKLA
T3 sequence (Q9UQL6 656-1122 limits assumed): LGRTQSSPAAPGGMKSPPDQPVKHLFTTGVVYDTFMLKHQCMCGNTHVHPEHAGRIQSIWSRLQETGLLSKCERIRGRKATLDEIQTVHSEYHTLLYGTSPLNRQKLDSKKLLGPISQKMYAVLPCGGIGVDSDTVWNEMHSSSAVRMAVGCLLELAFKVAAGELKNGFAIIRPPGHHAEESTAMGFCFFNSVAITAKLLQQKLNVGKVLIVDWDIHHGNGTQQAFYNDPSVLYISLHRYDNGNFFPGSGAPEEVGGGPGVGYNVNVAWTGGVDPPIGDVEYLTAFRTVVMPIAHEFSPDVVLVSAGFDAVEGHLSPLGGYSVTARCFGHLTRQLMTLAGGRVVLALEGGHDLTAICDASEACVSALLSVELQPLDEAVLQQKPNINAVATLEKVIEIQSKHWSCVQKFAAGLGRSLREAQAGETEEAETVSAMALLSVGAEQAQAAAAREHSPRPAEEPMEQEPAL

Consider `CC(c1ccc(-c2noc(C(F)(F)F)n2)s1)N(c1cnccn1)c1cnccn1` (stereo not drawn) [Example BB, N-(Pyrazin-2-yl)-N-(1-{5-[5-(trifluoromethyl)-1,2,4-oxadiazol-3-yl]thiophen-2-yl}ethyl)pyrazin-2-amine], for which the IC50 on Human HDAC1 is more than 10000 nM; on Human HDAC4, not above 500 nM; on Human HDAC5, not above 500 nM; on Recombinant human HDAC6, not above 10000 nM; on Human HDAC7, not above 1000 nM; at Human HDAC9 it was not above 10000 nM.
In the case of `COCc1nccnc1N(Cc1ccc(-c2noc(C(F)(F)F)n2)s1)c1cnccn1` [Example BG, 3-(Methoxymethyl)-N-(pyrazin-2-yl)-N-({5-[5-(trifluoromethyl)-1,2,4-oxadiazol-3-yl]thiophen-2-yl}methyl)pyrazin-2-amine], the IC50 at Human HDAC1 was more than 10000 nM; on Human HDAC4, not above 10000 nM; on Human HDAC5, not above 1000 nM; at Recombinant human HDAC6, not above 1000 nM; at Human HDAC7, not above 10000 nM; on Human HDAC9 it was not above 10000 nM.
As for `FC(F)(F)c1nc(-c2ccc(CN(c3cnccn3)c3cnc(-c4ccco4)cn3)s2)no1` [Example BJ, 5-(Furan-2-yl)-N-(pyrazin-2-yl)-N-({5-[5-(trifluoromethyl)-1,2,4-oxadiazol-3-yl]thiophen-2-yl}methyl)pyrazin-2-amine], the concentration for half-maximal inhibition (IC50) at Human HDAC1 was not above 10000 nM; on Human HDAC4 it was not above 1000 nM; on Human HDAC5 it was not above 10000 nM; on Recombinant human HDAC6 it was not above 10000 nM; on Human HDAC7 it was not above 10000 nM; at Human HDAC9, not above 10000 nM.
As for `CS(=O)(=O)c1cnc(N(Cc2ccc(-c3noc(C(F)(F)F)n3)s2)c2cnccn2)cn1` [Example BL, 5-Methanesulfonyl-N-(pyrazin-2-yl)-N-({5-[5-(trifluoromethyl)-1,2,4-oxadiazol-3-yl]thiophen-2-yl}methyl)pyrazin-2-amine], the half-maximal inhibitory concentration (IC50) at Human HDAC1 is more than 10000 nM; at Human HDAC4 it was not above 1000 nM; on Human HDAC5, not above 1000 nM; on Recombinant human HDAC6, not above 10000 nM; on Human HDAC7, not above 1000 nM; on Human HDAC9, not above 10000 nM.
Turning to `FC(F)(F)c1nc(-c2ccc(CN(c3cnccn3)c3cnc4[nH]ccc4n3)s2)no1` [Example BN, N-{5H-Pyrrolo[2,3-b]pyrazin-2-yl}-N-({5-[5-(trifluoromethyl)-1,2,4-oxadiazol-3-yl]thiophen-2-yl}methyl)pyrazin-2-amine], the IC50 at Human HDAC1 was more than 10000 nM; on Human HDAC4, not above 500 nM; at Human HDAC5 it was not above 500 nM; on Recombinant human HDAC6 it was not above 1000 nM; at Human HDAC7, not above 500 nM; on Human HDAC9 it was not above 500 nM.
`Cn1ccc2nc(N(Cc3ccc(-c4noc(C(F)(F)F)n4)s3)c3cnccn3)cnc21` [Example BO, N-{5-Methyl-5H-pyrrolo[2,3-b]pyrazin-2-yl}-N-({5-[5-(trifluoromethyl)-1,2,4-oxadiazol-3-yl]thiophen-2-yl}methyl)pyrazin-2-amine]: the IC50 at Human HDAC1 is more than 10000 nM; at Human HDAC4 it was not above 10000 nM; on Human HDAC5 it was not above 10000 nM; at Recombinant human HDAC6, not above 10000 nM; at Human HDAC7, not above 10000 nM; at Human HDAC9, not above 10000 nM.
Regarding `CN(C)C(=O)c1cncc(N(Cc2ccc(-c3noc(C(F)(F)F)n3)s2)c2cnccn2)n1` [Example BS, N,N-Dimethyl-6-[(pyrazin-2-yl)({5-[5-(trifluoromethyl)-1,2,4-oxadiazol-3-yl]thiophen-2-yl}methyl)amino]pyrazine-2-carboxamide], the concentration for half-maximal inhibition (IC50) on Human HDAC1 was more than 10000 nM; at Human HDAC4 it was not above 10000 nM; at Human HDAC5, not above 10000 nM; on Recombinant human HDAC6, not above 10000 nM; at Human HDAC7, not above 10000 nM; on Human HDAC9, not above 10000 nM.
For `Cc1ncc(N(Cc2ccc(-c3noc(C(F)(F)F)n3)s2)c2cnccn2)nc1C` [Example BT, 5,6-Dimethyl-N-(pyrazin-2-yl)-N-({5-[5-(trifluoromethyl)-1,2,4-oxadiazol-3-yl]thiophen-2-yl}methyl)pyrazin-2-amine], the concentration for half-maximal inhibition (IC50) on Human HDAC1 was more than 10000 nM; at Human HDAC4 it was not above 10000 nM; on Human HDAC5 it was not above 10000 nM; at Recombinant human HDAC6, not above 10000 nM; on Human HDAC7, not above 10000 nM; on Human HDAC9 it was not above 10000 nM.
